Laboratory results taken from patent publication US20090221554A1, “METHOD OF TREATING COGNITIVE IMPAIRMENT” (priority 2008, published 2009).

Tests used:
[1] = tested on: extracellular level of ACh in the hippocampus; assay: Extracellular level of acetylcholine (ACh) in the rat hippocampus (microdialysis, HPLC-ECD); type: in vivo, rats; conditions: vs 1% CMC
Method: Food and water were available ad libitum. All animal care and treatments were conducted in accordance with the Guidelines for the Care and Use of Laboratory Animals established at the Central Research Laboratory, Zenyaku Kogyo Co., Ltd.

[2] = tested on: cognitive impairment induced by scopolamine; assay: Passive avoidance task, scopolamine-induced cognitive impairment in mice; type: in vivo
Method: Male mice of the ICR strain (Charles River Laboratories Japan, Inc.) at the ages of 8 to 9 weeks were used in the experiment. They were housed in a cage in group of 3 or 4 mice, in a room maintained at around 22° C. with a 12-h light/dark cycle. Food and water were available ad libitum. All animal care and treatments were conducted in accordance with the Guidelines for the Care and Use of Laboratory Animals established at the Central Research Laboratory, Zenyaku Kogyo Co., Ltd.
Compound 1 and donepezil were suspended in 1% carboxymethyl cellulose (CMC). […] For the coadministration studies of Compound 1 and donepezil, both drug suspensions were mixed together and this mixed suspension was injected. All drugs were prepared immediately before use and orally administered in a volume of 10 ml/kg.
The passive avoidance apparatus (Neuroscience Inc.) consisted of an illuminated chamber and a larger dark chamber. Two chambers were separated by a guillotine door. Oral administration of compound 1 at doses of 0.0001 mg/kg or 0.001 mg/kg and/or donepezil at doses of 0.01 and 0.1 mg/kg was given 60 min before the acquisition trial. […] Matched control group received vehicle only. In the acquisition trial, each mouse was placed in the illuminated chamber. Immediately after the entry into the dark chamber, the door was closed and inescapable scrambled electric shock (100 V, 0.4 mA, 1.5 sec) was delivered through the floor grid. Twenty-four h later, each mouse was placed in the illuminated chamber for retention trial. The interval between the placement in the illuminated chamber and the entry into the dark chamber was measured as step through latency (maximum 300 sec).
P level of <0.05 was considered indicative of statistical significance for the tests.

**Q.** Which results are given for `COc1cc2c(cc1OC)C(=O)C(CC1CCN(Cc3ccccc3)CC1)C2` (stereo not shown) [donepezil]?
**A.** extracellular level of ACh in the hippocampus ([1]; donepezil 1 mg/kg p.o.): did not significantly increase; step-through latency ([2]; donepezil 0.01 mg/kg p.o., scopolamine 1 mg/kg i.p., vs 1% CMC + scopolamine): did not significantly prolong; step-through latency ([2]; donepezil 0.1 mg/kg p.o., scopolamine 1 mg/kg i.p., vs 1% CMC + scopolamine, P<0.05): prolonged

**Q.** With `O=C1N=C2C=CC=CN2C12Cc1ccccc1C2` [compound 1, spiro[imidazo[1,2-a]pyridin-2(3H)-one-3,2′-indan]] as the molecule, how does the “extracellular level of ACh in the hippocampus” value ([1]; compound 1 0.001 mg/kg p.o.) read?
**A.** did not significantly increase

**Q.** And the step-through latency ([2]; compound 1 0.0001 mg/kg p.o. 60 min before acquisition, scopolamine 1 mg/kg i.p., retention trial 24 h, vs 1% CMC + scopolamine)?
**A.** did not significantly prolong

**Q.** And the step-through latency ([2]; compound 1 0.001 mg/kg p.o., scopolamine 1 mg/kg i.p., vs 1% CMC + scopolamine, P<0.05)?
**A.** prolonged

**Q.** For `CN1[C@@H]2C[C@@H](OC(=O)[C@H](CO)c3ccccc3)C[C@H]1[C@@H]1O[C@@H]12` [scopolamine], which step-through latency ([2]; 1% CMC + scopolamine 1 mg/kg i.p. vs 1% CMC + saline control, P<0.01) is on record?
**A.** markedly shorter
